Among the data in patent US20070049578A1, “Cinnamamide compounds as metabotropic glutamate receptor antagonists” (AstraZeneca AB, priority 2005, published 2007) are IC50 values, retold here.

T1 sequence (P41594 21-942 isoform P41594-3 limits assumed): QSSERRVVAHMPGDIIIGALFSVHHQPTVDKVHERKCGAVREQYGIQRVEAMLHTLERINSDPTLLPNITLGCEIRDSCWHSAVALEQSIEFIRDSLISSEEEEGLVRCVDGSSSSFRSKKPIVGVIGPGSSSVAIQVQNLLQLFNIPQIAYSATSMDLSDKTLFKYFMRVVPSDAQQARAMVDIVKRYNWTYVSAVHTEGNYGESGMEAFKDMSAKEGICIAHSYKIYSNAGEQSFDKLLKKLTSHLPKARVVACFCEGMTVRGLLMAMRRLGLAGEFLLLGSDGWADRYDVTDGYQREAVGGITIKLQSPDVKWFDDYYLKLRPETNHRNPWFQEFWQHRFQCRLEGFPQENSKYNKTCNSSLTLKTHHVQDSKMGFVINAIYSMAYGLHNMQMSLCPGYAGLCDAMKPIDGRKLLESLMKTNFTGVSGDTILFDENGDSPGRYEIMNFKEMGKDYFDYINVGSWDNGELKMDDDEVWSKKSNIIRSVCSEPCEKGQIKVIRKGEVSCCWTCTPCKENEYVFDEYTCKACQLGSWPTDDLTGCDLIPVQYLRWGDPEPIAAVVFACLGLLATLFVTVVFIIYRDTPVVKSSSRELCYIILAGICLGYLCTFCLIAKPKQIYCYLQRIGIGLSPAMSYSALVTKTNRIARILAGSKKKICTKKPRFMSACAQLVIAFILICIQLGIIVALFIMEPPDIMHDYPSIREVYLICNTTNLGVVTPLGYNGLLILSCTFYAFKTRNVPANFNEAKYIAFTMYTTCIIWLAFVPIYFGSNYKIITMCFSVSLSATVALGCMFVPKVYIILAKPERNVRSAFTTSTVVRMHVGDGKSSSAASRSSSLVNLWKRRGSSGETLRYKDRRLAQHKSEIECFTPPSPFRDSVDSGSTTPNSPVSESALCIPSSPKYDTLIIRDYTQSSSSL

The experiment addresses T1, human mGluR5d (Homo sapiens, UniProt P41594).
T1 construct: expressed in transfected cells; host or cells: GHEK (human embryonic kidney cells expressing glutamate transporter) for the IP3 assay
The experiment is described as follows: Functional assessment of mGluR5 antagonism in cell lines expressing mGluR5d (FLIPR [Ca2+]i mobilization and/or IP3 turnover; not stated which assay gave the values). The format is cell-based. The conditions noted are these: assays described herein (FLIPR / IP3), cells expressing human mGluR5d. From the text: The pharmacological properties of the compounds of the invention can be analyzed using standard assays for functional activity. Examples of glutamate receptor assays are well known in the art as described in for example Aramori et al., Neuron 8:757 (1992), Tanabe et al., Neuron 8:169 (1992), Miller et al., J. Neuroscience 15: 6103 (1995), Balazs, et al., J. Neurochemistry 69:151 (1997). The methodology described in these publications is incorporated herein by reference. Conveniently, the compounds of the invention can be studied by means of an assay that measures the mobilization of intracellular calcium, [Ca^2+]i in cells expressing mGluR5.
Intracellular calcium mobilization was measured by detecting changes in fluorescence of cells loaded with the fluorescent indicator fluo-3. Fluorescent signals were measured using the FLIPR system (Molecular Devices). A two addition experiment was used that could detect compounds that either activate or antagonize the receptor.
For FLIPR analysis, cells expressing human mGluR5d were seeded on collagen coated clear bottom 96-well plates with black sides and analysis of [Ca^2+]i mobilization was done 24 hours after seeding.
FLIPR experiments were done using a laser setting of 0.800 W and a 0.4 second CCD camera shutter speed. Each FLIPR experiment was initiated with 160 μL of buffer present in each well of the cell plate. After each addition of the compound, the fluorescence signal was sampled 50 times at 1 second intervals followed by 3 samples at 5 second intervals. Responses were measured as the peak height of the response within the sample period.
EC50 and IC50 determinations were made from data obtained from 8-point concentration response curves (CRC) performed in duplicate. Agonist CRC were generated by scaling all responses to the maximal response observed for the plate. Antagonist block of the agonist challenge was normalized to the average response of the agonist challenge in 14 control wells on the same plate.
We have validated a secondary functional assay for mGluR5d based on Inositol Phosphate (IP3) turnover. IP3 accumulation is measured as an index of receptor mediated phospholipase C turnover. GHEK cells stably expressing the human mGluR5d receptors were incubated with [3H] myo-inositol overnight, washed three times in HEPES buffered saline and pre-incubated for 10 minutes with 10 mM LiCl. Compounds (agonists) were added and incubated for 30 minutes at 37° C. Antagonist activity was determined by pre-incubating test compounds for 15 minutes, then incubating in the presence of glutamate (80 μM) or DHPG (30 μM) for 30 minutes. Reactions were terminated by the addition of perchloric acid (5%). Samples were collected and neutralized, and inositol phosphates were separated using Gravity-Fed Ion-Exchange Columns.
Functional Assessment of mGluR5 Antagonism in Cell Lines Expressing mGluR5D
The properties of the compounds of the invention can be analyzed using standard assays for pharmacological activity. Examples of glutamate receptor assays are well known in the art as described in for example Aramori et al., Neuron 8:757 (1992), Tanabe et al., Neuron 8:169 (1992), Miller et al., J. Neuroscience 15: 6103 (1995), Balazs, et al., J. Neurochemistry 69:151 (1997). The methodology described in these publications is incorporated herein by reference. […]
With `C[C@@H]1CN(c2ncc(F)cc2C#N)CCN1C(=O)/C=C/c1cccc(OC(F)F)c1` [Example 11.28, 2-((3R)-4-{(2E)-3-[3-(difluoromethoxy)phenyl]prop-2-enoyl}-3-methylpiperazin-1-yl)-5-fluoronicotinonitrile], the IC50 (as a rule, the concentration that gives 50% inhibition) came out at 293 nM.
The figure for `O=C(/C=C/c1cccc(Cl)c1)N1CCN(c2ncccc2[N+](=O)[O-])CC1` [Example 11.6, 1-[(2E)-3-(3-chlorophenyl)prop-2-enoyl]-4-(3-nitro-pyridin-2-yl)piperazine] is 10 nM.
`C[C@@H]1CN(c2ncccc2C#N)CCN1C(=O)/C=C/c1cccc(Br)c1` [Example 11.22, 2-{(3R)-4-[(2E)-3-(3-bromo-phenyl)prop-2-enoyl]-3-methylpiperazin-1-yl}nicotinonitrile] came in with an IC50 of 33 nM.
Compound `CCOC(=O)N1CCN(C(=O)/C=C/c2cccc(Cl)c2)CC1` [Example 11.4, ethyl 4-[(2E)-3-(3-chloro-phenyl)prop-2-enoyl]piperazine-1-carboxylate] gave an IC50 of 1110 nM.
Regarding `COCC1CN(c2nccnc2C#N)CCN1C(=O)/C=C/c1cccc(Cl)c1` (centres unmarked) [Example 29.1, 3-[4-[(2E)-3-(3-chlorophenyl)prop-2-enoyl]-3-(methoxymethyl)piperazin-1-yl]pyrazine-2-carbonitrile], the IC50 was determined as 384 nM.
